For 87 molecules, melting point results are on record in a melting point compilation (Tetko et al.; mined from patent text by program, amines drawn as free bases though some values may be those of a salt).

Molecules are shown by their SMILES.

`O=C(Oc1ccc(Cl)cc1Cn1nc(-c2ccc(C(F)(F)F)cc2)oc1=O)c1ccc(CCl)cc1` gave a melting point of 142 to 144 °C. To `Cc1cccc(-c2nccc(-c3ccccc3C)n2)n1` belongs 119 °C. For `O=C(CCCl)Nc1ccccc1` the value was 114 to 116 °C. For `O=C(Nc1cc2ncc(CN3CCCC3)cc2cc1Cl)c1ccc(-c2ccc(F)cc2)cc1` the value was 188 °C; for `NC(=O)c1nc(N)nc(N)c1-c1ccc(Cl)cc1Cl`, 298 to 299 °C.

Molecule `COc1cc(CC(=O)CCNCCOc2ccc(C(=O)O)cc2OC)ccc1NC(=O)Nc1ccccc1F` had a melting point of 105 to 110 °C. For `CC(C)(C)OC(=O)C(C(=O)O)c1cccc(N)c1` (configuration not stated) the value was 105 °C.

In turn, `COc1c(C)cc(N2CCN(c3ccc(-n4c(C)n[nH]c4=O)cc3)CC2)cc1C` displayed a melting point of 280 °C. For `N#Cc1nn(C2CCCC2)c2nc(-c3ccncc3)nc(N)c12` the value was 219 to 221 °C; for `CCCCCS(=O)(=O)NC(=O)/C(C)=C/c1ccc(OCCCOC)cc1Oc1ncc(Cl)cc1Cl`, 116 to 117 °C. For `CCCC(CCC)C(=O)O/N=C(\C)[C@H]1CC[C@H]2[C@@H]3CCC4=CC(=O)CC[C@]4(C)[C@H]3CC[C@]12C` the value was 78 to 80 °C; for `COc1cc(C(=O)O)c2c(c1OC)OC(C1CC1)C=C2` (configuration not stated), 124 to 126 °C. For `COC(=O)c1[nH]c(C)c(C)c1OCCCl` the value was 122 to 123 °C; for `Cc1oncc1C(=O)Nc1ccc(N)cc1`, 123 to 128 °C; for `NC(=O)C1(CC23CC4CC(CC(C4)C2)C3)C=C(O)C=CC1Cl` (configuration not stated), 263 to 264 °C. In the case of `CC(C)(C)c1cc(C(=O)c2c[nH]c(SC#N)c2)cc(C(C)(C)C)c1O`, the melting point lay within 230 to 231 °C. To `CC1=Nc2c3cc(C(=O)O)nc-3ccn2C1` belongs 325 to 327 °C; to `CCCCCCC(C)Oc1ccc(-c2ccc(C(C)=O)cc2)cc1F` (configuration not stated), 67.6 to 68.5 °C; to `COc1ccccc1-n1c(=O)[nH]c2c(C(N)=O)nc(N[C@@H]3CCNC3)nc21`, > 400 °C.

Take `COC(=O)c1c(C(=O)NC(C)(C(N)=O)C(C)C)cccc1[N+](=O)[O-]` (configuration not stated): the melting point lay within 100 to 107 °C. For `Cc1ccc(S(=O)(=O)OCCC2CCN(C(=O)c3ccccc3)CC2)cc1` the value was 81 to 83 °C.

For the molecule `NC(=O)[C@@H]1[C@H](Nc2ccnc3[nH]c(-c4cccc(CN5CCOCC5)c4)nc23)[C@H]2C=C[C@@H]1C2`, the melting point fell in the range of 240 to 244 °C. `CCOc1cc(OCc2cccc(OCc3nc(-c4ccccc4)oc3C)c2)ccc1CCC(=O)O` displayed a melting point of 122 to 123 °C. Molecule `CCc1cccc(NC(=O)C(C)(C)C)n1` yielded a melting point of 59 to 62 °C. Regarding `Nc1nc(N)c2cc(Cc3ccc(F)cc3)ccc2n1`, the melting point lay within 214 to 216 °C. For `CC1(C)OC(=O)Nc2ccc(-c3ccc(C#N)c(F)c3)cc21` the value was 272 to 275 °C; for `CCOC(=O)C1=C(C)NC(C)=C(C(=O)OCC)C1c1cccc(F)c1`, 149 to 150 °C; for `O=C(OCc1ccc(CO)cc1COC(=O)c1ccccc1)c1ccccc1`, 91 to 93 °C.

On to `C#CC1CCC2(CC1)SCC(C(C)(C)C)CS2` (configuration not stated), for which the melting point was 86 to 87 °C. To `Cc1cccc(CSc2c(O)cc(-c3ccccc3)oc2=O)c1` belongs 139 to 140 °C. To `CCc1nc(-c2ccccc2Cl)nn1C` belongs 44 °C. `CN1C(=O)C2C3C=CC(C3)C2(c2ccc3c(c2)CCCC3)C1=O` (configuration not stated) showed a melting point of 78 to 86 °C. To `Cc1cccc(C(=O)NC(C)(C(N)=S)C(C)C)c1` (configuration not stated) belongs 108 to 110 °C; to `CN(Cc1cc2c(-c3ccccc3)c(CC(=O)Nc3ccc(Cl)cc3C(F)(F)F)c(=O)oc2cc1Cl)C(=O)c1ccccc1`, 215 to 216 °C; to `CCCCNC(=O)NCC1CCN(c2ncnc3cc(OC)c(OC)cc23)CC1`, 141 to 143 °C.

In turn, `COC(=O)c1cc(COS(C)(=O)=O)cc([N+](=O)[O-])c1` had a melting point of 96 to 97 °C. For `O=C(O)CCC/C=C\[C@@H]1C[C@@H](NS(=O)(=O)c2ccccc2)CN1S(=O)(=O)c1ccc(Cl)cc1` the value was 121 to 123 °C; for `Nc1ccc(C2Nc3ccccc3C(=O)N2c2ccccc2)cc1` (configuration not stated), 191 °C; for `C=Cc1ccc(-c2ccccn2)cc1`, 19.3 °C. For `CC(C)(C)CNS(=O)(=O)c1cccc(NC(=O)c2cnn3c(C(F)(F)F)cc(-c4ccc(C(F)(F)F)cc4)nc23)c1`, the melting point came to 231 °C. Molecule `CCCCc1oc2ccccc2c1C=NOCCCOc1ccc(C(=O)O)cc1-c1ccc(C(F)(F)F)cc1` gave a melting point of 140 °C. In turn, `O=C1NC(=NC2CCCC2)C(c2ccc3[nH]ccc3c2)N1c1ccc2[nH]cnc2c1` (configuration not stated) yielded a melting point of 210 °C. Take `CC1Sc2c(C(=O)O)c(=O)c3cc(F)c(N4CCN(C)CC4)c(F)c3n21` (configuration not stated): the melting point worked out at 238 °C. To `Nc1nc2c(s1)CCN(CC=Cc1ccccc1OCc1ccccc1)CC2` belongs 103 to 107 °C; to `FC(F)(F)c1cccc(-c2ccnc3ncnn23)c1`, 158 to 160 °C. For `COc1cc(OCCNC(=O)C2Cc3ccccc3N2S(=O)(=O)c2ccc(-c3cc(C(F)(F)F)ccc3Cl)cc2)ccc1C(=O)O` (configuration not stated) the value was 98 to 104 °C. To `CC[C@H](C)[C@@H](CO)NS(=O)(=O)c1ccc(Cl)c(N)c1` belongs 89 to 92 °C; to `CCCCCCC1(CCCCCC)c2cc(C#N)ccc2-c2ccc(C#N)cc21`, 116 to 118 °C; to `CC1CN(c2ncc(C(=O)N(c3cccc(C(F)(F)F)c3)C3CCCC3)c(N)n2)C(=O)N1` (configuration not stated), 219 to 220 °C.

`O=C1Nc2c(Cl)cc(Cl)c3cccc1c23` came in with a melting point of 265 °C. `O=C1O[C@@H](CNC(=S)C(F)F)CN1c1ccc(N2CCS(=O)(=O)CC2)c(F)c1` yielded a melting point of 146 to 147 °C. To `CCCc1nn(C)c2c(=O)[nH]c(-c3cc(C(=O)N4CCN(C)CC4)ccc3OCC)nc12` belongs 196 to 197 °C; to `Cc1oc(-c2ccccc2)nc1CCc1noc2cc(CC(Sc3ccccc3)C(=O)O)ccc12` (configuration not stated), 145 to 147 °C; to `OCC1COC(Cn2cncn2)(c2ccc(Oc3ccccc3)cc2)O1` (configuration not stated), 111 to 112 °C. For `COCCOc1cc(N)c([N+](=O)[O-])cc1I` the value was 121 to 122 °C; for `COC(=O)C1=C(C)NC(=O)N(C(=O)OC(C)C)C1c1cccc(Cl)c1Cl` (configuration not stated), 162 to 163 °C; for `Cc1cccc(C2=C(c3ccc(F)c(-c4cn[nH]c4)c3)NN(C(C)C)C2)n1`, 129 to 136 °C.

Turning to `CC(C)(C)OC(=O)NNC(=S)Nc1ccc(F)cc1`, the melting point lay within 158 to 160 °C. To `COC(=O)c1nc(CCl)n(-c2ccc(Cl)cc2C(=O)c2ccccc2)n1` belongs 132 to 134 °C; to `CCNC(=O)Nc1cc(-c2c(-c3ccc(F)c(C)c3)nc3c(C)ccnn23)ccn1`, 240 to 241 °C. For `CCc1cc(=O)c(C(=O)c2ccccc2)c(C)[nH]1` the value was 169 to 170 °C.

The molecule `Nc1nc(OCc2cccs2)ncc1F` registered a melting point of 92 to 94 °C. Molecule `CC1(C)C(=O)Nc2ccc(-c3ccc(F)c(Cl)c3)cc21` registered a melting point of 206 to 208 °C.

For the molecule `O=C1CC(N2C=Nc3cccc(Br)c3C2)C(=O)N1` (configuration not stated), the melting point fell in the range of 214 to 217 °C. For `O=S(=O)(CCl)c1c(Cl)nc(Cl)nc1Cl` the value was 152 to 153 °C; for `COCc1cnc2c([N+](=O)[O-])ccc(C)c2c1Cl`, 120 to 124 °C. For `COc1ccc2c(c1)c(CC(=O)OC(OC(C)=O)c1ccccc1)c(C)n2C(=O)c1ccc(Cl)cc1` (configuration not stated) the value was 93 to 94 °C; for `N#CC1CN1Cc1ccccc1` (configuration not stated), 81 to 83 °C.

`COC(=O)c1ccc(Cc2cc3cc(C(F)(F)F)ccc3n2S(=O)(=O)c2ccc(C(C)C)cc2)cc1F` registered a melting point of 132 °C. For `Cc1c(NC(=O)OCCCl)cc([N+](=O)[O-])c(N)c1C` the value was 151 °C.

Molecule `CC(N(CCCl)C(N)=O)P(=O)(O)O` (configuration not stated) had a melting point of 180 °C. To `CCNc1n[nH]c2ccc(C3C(C#N)=C(C)NC(C)=C3C#N)cc12` belongs 248 °C; to `COc1ccc(-c2ccc3c(c2)CCC3=O)c2c1OCCO2`, 168 °C. Molecule `COc1ccc(N2CCN(c3c(C)c(C)c4c(c3C(C)C)CC(C)(C)O4)CC2)cc1` had a melting point of 192 to 194 °C.

The molecule `Nc1nc(-c2ccc(OCC(=O)NCC3CCCCC3)cc2)cs1` yielded a melting point of 145 to 147 °C. For `O=C1C(c2cccn2-c2ccccc2)=CC(=O)c2ncccc21` the value was 132 to 134 °C; for `Cc1cc(NC(=O)C(C)(O)COc2cccc(Cl)c2)ccc1[N+](=O)[O-]` (configuration not stated), 104 to 107 °C.

With `COc1ccc(-c2c(/C=C/C(=O)O)ccc3cc(OC)ccc23)cc1`, the melting point was in the range of 248 to 249 °C. For `CC(=O)NC1C(OCc2ccccc2)OC(COCc2ccccc2)C(OCc2ccccc2)C1OCC(O)CO` (configuration not stated) the value was 165 to 166 °C; for `CCN(c1nc(-c2c(F)cccc2OC)c2[nH]ncc2n1)c1ccc(C(F)(F)F)cc1Cl`, 184 to 185 °C; for `COc1cc(CCC[C@H]2OC(=O)NC2=O)ccc1OCc1nc(-c2ccco2)oc1C`, 122 to 123 °C. To `CC1(C)C(=O)N(CC#CI)C(=O)N1Cc1ccccc1` belongs 109 to 112 °C; to `Cc1oc(-c2ccccc2)nc1COc1ccc(Cn2cc(C=O)c(-c3cccs3)n2)cc1`, 136 to 137 °C. To `CCCC(=O)C(=O)NCC(OCC)(OCC)c1ccncc1` belongs 95 to 96 °C. Regarding `Cc1ccc(C)c(-c2nn(C(C)(C)C(=O)N(C)C)cc2C)c1`, the melting point is 93 to 95 °C.

`O=C(CC1CCCCC1)c1c(O)c2cccnc2n(-c2ccccc2)c1=O` came in with a melting point of 231 to 233 °C. To `O=C1CCCN1Cc1ccc(CCn2cnc3cc(-c4ccc(Cl)cc4)sc3c2=O)cc1` belongs 218 to 221 °C.
